ChEMBL document CHEMBL5230117, “Chalcones: Unearthing their therapeutic possibility as monoamine oxidase B inhibitors” (Eur J Med Chem, 2020)

Experiments:
[1] = molecular target: T1, Amine oxidase [flavin-containing] A (Homo sapiens, UniProt P21397); test: Inhibition of human MAO-A using kynuramine as substrate incubated for 20 mins by fluorescence based assay relative to control
T1 sequence (P21397 whole entry): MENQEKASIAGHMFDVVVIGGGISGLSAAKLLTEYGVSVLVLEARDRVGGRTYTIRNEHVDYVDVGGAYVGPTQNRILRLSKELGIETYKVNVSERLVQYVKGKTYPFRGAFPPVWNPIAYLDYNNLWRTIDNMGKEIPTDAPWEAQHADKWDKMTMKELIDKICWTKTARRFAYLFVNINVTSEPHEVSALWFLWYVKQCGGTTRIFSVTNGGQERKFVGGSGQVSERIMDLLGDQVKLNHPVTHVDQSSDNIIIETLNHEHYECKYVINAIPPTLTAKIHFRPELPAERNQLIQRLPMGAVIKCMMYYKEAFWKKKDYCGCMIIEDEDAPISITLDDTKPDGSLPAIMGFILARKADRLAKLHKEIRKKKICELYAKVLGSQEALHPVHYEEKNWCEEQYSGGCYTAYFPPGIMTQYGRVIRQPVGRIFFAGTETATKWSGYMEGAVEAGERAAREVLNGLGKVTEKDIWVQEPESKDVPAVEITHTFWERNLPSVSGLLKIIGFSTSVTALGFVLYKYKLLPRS

[2] = molecular target: T2, Amine oxidase [flavin-containing] B (Homo sapiens, UniProt P27338); test: Inhibition of human MAO-B using kynuramine as substrate incubated for 20 mins by fluorescence based assay relative to control
T2 sequence (P27338 whole entry): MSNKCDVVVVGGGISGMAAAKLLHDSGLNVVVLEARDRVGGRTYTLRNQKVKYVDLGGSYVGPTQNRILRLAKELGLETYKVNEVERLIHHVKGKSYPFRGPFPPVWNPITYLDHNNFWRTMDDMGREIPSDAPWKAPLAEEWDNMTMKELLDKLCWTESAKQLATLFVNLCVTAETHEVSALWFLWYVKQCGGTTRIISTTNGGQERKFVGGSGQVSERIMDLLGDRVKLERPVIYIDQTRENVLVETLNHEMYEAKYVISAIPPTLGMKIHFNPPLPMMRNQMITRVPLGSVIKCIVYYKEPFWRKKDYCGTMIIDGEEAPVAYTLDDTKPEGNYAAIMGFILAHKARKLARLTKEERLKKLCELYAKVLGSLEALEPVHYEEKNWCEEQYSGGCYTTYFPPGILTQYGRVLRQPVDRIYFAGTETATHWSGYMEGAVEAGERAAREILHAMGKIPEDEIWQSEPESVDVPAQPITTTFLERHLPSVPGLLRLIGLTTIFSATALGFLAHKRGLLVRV

Homo sapiens [3] = species: Homo sapiens; test: Selectivity index, ratio of IC50 for human MAO-A to IC50 for human MAO-B by fluorescence based assay
[4] = molecular target: T2, Amine oxidase [flavin-containing] B; test: Inhibition of human MAO-B using p-tyramine as substrate by fluorimetric based assay
[5] = molecular target: T2, Amine oxidase [flavin-containing] B; test: Binding affinity to human MAO-B using kynuramine as substrate incubated for 30 mins by absorbance based assay
[6] = molecular target: T2, Amine oxidase [flavin-containing] B; test: Inhibition of human MAO-B using benzylamine as substrate
Homo sapiens [7] = species: Homo sapiens; test: Selectivity index, ratio of IC50 for human MAO-A to IC50 for human MAO-B
[8] = molecular target: T1, Amine oxidase [flavin-containing] A; test: Inhibition of human MAO-A using kynuramine as substrate incubated for 10 mins by continuous spectrophotometric method
[9] = molecular target: T2, Amine oxidase [flavin-containing] B; test: Inhibition of human MAO-B using kynuramine as substrate incubated for 30 mins by fluorescence based assay; conditions: 0.5 h
[10] = molecular target: T2, Amine oxidase [flavin-containing] B; test: Binding affinity to human MAO-B using p-tyramine as substrate incubated for 15 mins by amplex red dye based microplate assay

In the case of CC(C)=CCC/C(C)=C/Cc1c(O)ccc(C(=O)/C=C/c2ccc(O)cc2)c1O [XANTHOANGELOL], the IC50 [1] is reported as greater than 40000 nM, the IC50 [2] is reported as 13200 nM and the Ratio IC50 (Homo sapiens [3]) is reported as greater than 3.03.

Work on COc1cc(O)c(C(=O)/C=C/c2ccccc2O)c(OC)c1 yielded an IC50 [1] of 390 nM, an IC50 [2] of 2710 nM and a Ratio IC50 (Homo sapiens [3]) of 0.14.

COc1cc2c(Nc3ccc(C(=O)/C=C/c4nc(C)c(C)nc4C)cc3)ncnc2c(OC)c1OC showed an IC50 [4] of 2600 nM.

Work on O=C(/C=C/c1ccc(O)c(O)c1O)c1ccco1 yielded a Ki [5] of 3550 nM.

Molecule CC/C(C)=N/Oc1ccc(C(=O)/C=C/c2ccccc2)cc1 has an IC50 [6] of 86 nM, a Ratio IC50 (Homo sapiens [7]) greater than 120 and an IC50 [8] greater than 10000 nM.

With COc1ccc(C(=O)/C=C/c2ccc(N(C)C)cc2)cc1 the “inhibition (INH)” value [9] was less than 75%.

O=C(/C=C/c1ccc(Br)cc1)c1c[nH]c2ccccc12 showed a Ratio IC50 (Homo sapiens [7]) of 120 and a Ki [10] of 10 nM.

Molecule COC(=O)c1ccc(/C=C/C(=O)c2ccco2)cc1 has a Ki [5] of 300 nM.

With COc1ccc(/C=C/C(=O)c2ccc(Cl)cc2)cc1 the “inhibition (INH)” value [9] was less than 75%.

Molecule O=C(/C=C/c1csc2ccccc12)c1ccco1 has a Ratio IC50 (Homo sapiens [7]) of 12.6 and a Ki [10] of 72 nM.

O=C(/C=C/C=C/c1ccccc1)c1ccco1 gave a Ratio IC50 (Homo sapiens [7]) of 172 and a Ki [10] of 4.1 nM.

For CC(C)=CCc1cc(C(=O)/C=C/c2ccc(O)c(O)c2)c(O)cc1O [BROUSSOCHALCONE A], the IC50 [1] was 720 nM, the IC50 [2] was 7020 nM and the Ratio IC50 (Homo sapiens [3]) was 0.1.

O=C(/C=C/c1ccc(Cl)cc1Cl)c1ccco1 was tested, and the Ki [5] was 850 nM.

Work on COc1ccc(C(=O)/C=C/c2ccc(O)cc2)c(O)c1CC=C(C)C yielded an IC50 [1] greater than 40000 nM, an IC50 [2] of 1390 nM and a Ratio IC50 (Homo sapiens [3]) greater than 28.8.
